Data as given in article PMC4145329 (Marine Drugs, 2014).
≈ marks a conversion by molar mass, not a printed value.

Assays:
SW480 cells = assay: MTT anti-proliferative assay, SW480; type: cell-based, human; conditions: for Cytotoxicity IC50, SW480: human, 72 h
Protocol: (§1) All of the cells were incubated at 37 °C in a humidified atmosphere composed of 95% air and 5% CO2. The cell viability was determined by measuring the ability of cells to transform MTT (Genview, Houston, TX, USA) to a purple formazan dye. The cells were seeded in 96-well tissue culture plates at 2.5 × 10^3 cells/well for 24 h. […] After incubation, 20 μL/well of MTT solution (5 mg/mL phosphate buffered saline) were added and incubated for 5 h. The medium was aspirated and replaced with 100 μL/well of DMSO to dissolve the formazan salt. The color intensity of the formazan solution, which reflects the cell growth condition, was measured at 570 nm using a microplate spectrophotometer (SpectroAma™ 250, Winooski, VT, USA).

MCF-7 cells = assay: MTT anti-proliferative assay, MCF-7; type: cell-based, human; conditions: for Cytotoxicity IC50, MCF-7: human, 72 h
Protocol: as §1

HepG2 cells [1] = assay: MTT anti-proliferative assay, HepG2; type: cell-based, human; conditions: for Cytotoxicity IC50, HepG2: human, 72 h
Protocol: as §1

[2] = MTT anti-proliferative assay, L02; type: cell-based; conditions: human
Protocol: as §1

U87 cells = assay: MTT anti-proliferative assay, U87; type: cell-based, human; conditions: for Cytotoxicity IC50, U87: human, 72 h
Protocol: as §1

caspase-9 = assay: Western blot, cleaved caspase-9 in HepG2; type: cell-based, human; conditions: HepG2, 3, 6, 12, and 24 μg/mL, 72 h
Protocol: (§2) The protein was extracted with RIPA buffer and quantified using the Bradford method. Equal amounts of protein were loaded into each well. After SDS-PAGE, the proteins were transferred to a polyvinylidene difluoride (PVDF) membrane. The membrane was blocked with 5% non-fat milk for 1 h and incubated with a primary antibody (Cell Signaling Technology, Danvers, MA, USA, Rabbit monoclonal antibody, 1:1000) at 4 °C overnight. After washing two times with TBST (Tris-buffered saline with 0.1% Tween-20) buffer, the membrane was incubated with a secondary antibody (goat-anti-rabbit horseradish peroxidase (HRP)-conjugated 1:15,000) at room temperature for 1 h. The membranes were washed three times (8 min each time) with TBST. The intensity of the specific immunoreactive bands was detected through enhanced chemiluminescence (ECL).

HepG2 cells [3] = assay: Annexin V-FITC/PI flow cytometry apoptosis analysis; type: cell-based, human; conditions: 72 h; for percentage of early apoptotic cells: mean; for Q4 (lower right, early apoptotic cells), representative dot plot: Figure 3 picture
Protocol: The apoptotic cells were quantified using an Annexin V-FITC (Sigma-Aldrich, USA) Apoptosis Detection Kit according to the manufacturer’s instructions. […] Five μL of Annexin V-fluorescein isothiocyanate (FITC) and 5 μL of PI were added. The analysis was performed with a FACScan flow cytometer (Coulter Epics Elite, Miami, FL, USA). The cells in the FITC-positive and PI-negative fraction were regarded as apoptotic cells.

HepG2 cells [4] = assay: Hoechst33342 staining, nuclear damage observation; type: cell-based, human; conditions: HepG2, 3, 6, 12 μg/mL, 72 h
Protocol: Apoptotic nuclear morphology was visualized by the Hoechsst33342 staining technique. Cells were fixed with 3.7% of paraformaldehyde for 10 min at room temperature and washed three times with PBS. Thus, paraformaldehyde-fixed cells were stained using Hoechsst33342 (10 μg/mL) in the dark for 10 min. After washing three times with PBS, cells were visualized using fluorescence microscope.

PARP = assay: Western blot, cleaved PARP in HepG2; type: cell-based, human; conditions: HepG2, 3, 6, 12, and 24 μg/mL, 72 h
Protocol: as §2

caspase-3 = assay: Western blot, cleaved caspase-3 in HepG2; type: cell-based, human; conditions: HepG2, 3, 6, 12, and 24 μg/mL, 72 h
Protocol: as §2

[5] = system: human renal cell carcinoma GRC-1; conditions: earlier research; cited from earlier work
[6] = system: hepatocellular carcinoma HepG2; conditions: earlier research; cited from earlier work

Molecule | Cytotoxicity IC50, SW480 (SW480 cells) | Cytotoxicity IC50, MCF-7 (MCF-7 cells) | Cytotoxicity IC50, HepG2 (HepG2 cells [1]) | IC50 at 72 h [2] | Cytotoxicity IC50, U87 (U87 cells) | cleaved caspase-9 expression (caspase-9) | Q4 (lower right, early apoptotic cells), representative dot plot (HepG2 cells [3]; HepG2, 6 μg/ml) | Q4 (lower right, early apoptotic cells), representative dot plot (HepG2 cells [3]; HepG2, 12 μg/ml) | nuclear morphology (Hoechst33342) (HepG2 cells [4]) | cleaved PARP expression (PARP) | cleaved caspase-3 expression (caspase-3) | further results
CC(C)C[C@@H]1NC(=O)[C@H](CC(C)C)N(C)C(=O)[C@H](CC(C)C)NC(=O)[C@H](CC(C)C)N(C)C(=O)[C@H](Cc2ccccc2)NC1=O [Compound A1, Cyclo(Phe-N-Me-Leu-Leu-N-Me-Leu-Leu)] | 12.37 ± 1.01 µg/mL | 9.40 ± 0.43 µg/mL | 4.11 ± 0.16 µg/mL | > 40 µg/mL | >40 µg/mL |  |  |  |  |  |  | 
CC(C)C[C@@H]1NC(=O)[C@@H](CC(C)C)NC(=O)[C@@H](CC(C)C)N(C)C(=O)[C@@H](CC(C)C)NC(=O)[C@@H](Cc2ccccc2)N(C)C1=O [Compound A5, Cyclo(Leu-D-N-Me-Phe-D-Leu-D-N-Me-Leu-D-Leu)] | 5.10 ± 0.12 µg/mL | 4.18 ± 0.15 µg/mL | 1.46 ± 0.09 µg/mL | 10.6 ± 0.6 µg/mL (≈ 16.8 µM) | 1.85 ± 0.11 µg/mL | significantly increased | 19.9% | 22.4% | chromatin condensation at the edges of the nuclear membrane and nuclear fragmentation | significantly increased | significantly increased | fold more active than galaxamide, SW480 (SW480 cells; ratio of IC50 values): 8.59 fold; percentage of early apoptotic cells (HepG2 cells [3]; HepG2, 3 μg/mL): 6.6% ± 1.7%; Q4 (lower right, early apoptotic cells), representative dot plot (HepG2 cells [3]; HepG2, 3 μg/ml): 6.6%; percentage of early apoptotic cells (HepG2 cells [3]; HepG2, 12 μg/mL): 22.4% ± 2.4%; fold more active than galaxamide, MCF-7 (MCF-7 cells; ratio of IC50 values): 3.37 fold; fold more active than galaxamide, HepG2 (HepG2 cells [1]; ratio of IC50 values): 3.17 fold; fold more active than galaxamide, U87 (U87 cells; ratio of IC50 values): 5.73 fold
Galaxamide |  |  |  |  |  | significantly increased | 2.1% | 13.4% | chromatin condensation at the edges of the nuclear membrane and nuclear fragmentation | significantly increased | significantly increased | percentage of early apoptotic cells (HepG2 cells [3]; HepG2, 6 μg/mL): 2.3% ± 0.3%; percentage of early apoptotic cells (HepG2 cells [3]; HepG2, 24 μg/mL): 18.8% ± 1.9%; Q4 (lower right, early apoptotic cells), representative dot plot (HepG2 cells [3]; HepG2, 24 μg/ml): 18.8%; antitumor activity against GRC-1 [5]: significant antitumor activity; antitumor activity against HepG2 [6]: significant antitumor activity
CC(C)C[C@@H]1NC(=O)[C@@H](CC(C)C)N(C)C(=O)[C@H](CC(C)C)NC(=O)[C@@H](Cc2ccccc2)N(C)C(=O)[C@@H](CC(C)C)NC1=O [Compound A4, Cyclo(Me-D-Leu-Leu-D-Leu-Me-D-Phe-Leu)] | 8.60 ± 0.08 µg/mL | 6.56 ± 0.18 µg/mL | 6.27 ± 0.13 µg/mL | > 40 µg/mL | 2.82 ± 0.10 µg/mL |  |  |  |  |  |  | 
CC(C)C[C@@H]1NC(=O)[C@@H](CC(C)C)N(C)C(=O)[C@H](CC(C)C)NC(=O)[C@@H](Cc2ccccc2)N(C)C(=O)[C@H](CC(C)C)NC1=O [Compound A3, Cyclo(Me-D-Leu-Leu-Leu-Me-D-Phe-Leu)] | 10.20 ± 0.15 µg/mL | 7.23 ± 0.27 µg/mL | 5.58 ± 0.11 µg/mL | > 40 µg/mL | 20.16 ± 0.30 µg/mL |  |  |  |  |  |  | 
CC(C)C[C@@H]1NC(=O)[C@H](CC(C)C)N(C)C(=O)[C@H](CC(C)C)NC(=O)[C@H](CC(C)C)N(C)C(=O)[C@@H](Cc2ccccc2)NC1=O [Compound A2, Cyclo(D-Phe-N-Me-Leu-Leu-N-Me-Leu-D-Leu)] | 5.75 ± 0.19 µg/mL | 9.64 ± 0.35 µg/mL | 4.56 ± 0.20 µg/mL | > 40 µg/mL | >40 µg/mL |  |  |  |  |  |  | 
